Patent US20200024223A1, “CRYSTALLINE SALTS OF (4S,4AS,5AR,12AS)-4-DIMETHYLAMINO-3,10,12,12A-TETRAHYDROXY-7-[(METHOXY(METHYL)AMINO)-METHYL]-1,11-DIOXO-1,4,4A,5,5A,6,11,12A-OCTAHYDRO-NAPHTHACENE-2-CARBOXYLIC ACID AMIDE AND METHODS OF USING THE SAME” (priority 2011, published 2020)
Converted amounts (≈) assume the structure as drawn. “And” between values parts separate entries of the source, which are not always exact repeats. Identical values can stand only once. Counter-ions that a name gives are not always drawn. Each block holds one compound with its values, some of them ahead of it.

Columns and labels:
E. coli = experiment: In vitro MIC testing, antibacterial spectrum of activity; type: cell-based
[1] = Storage stability by HPLC-UV (chemical purity, β-isomer content, total impurity content); type: physicochemical; settings: for Chemical Purity at 0 days / β-isomer content at 0 days: 0 days (after synthesis); for Chemical Purity at 7 days, 40° C. and 75% RH / β-isomer content at 7 days, 40° C. and 75% RH: storage 7 days at 40° C. and 75% RH; for Chemical Purity at 75 days / β-isomer content at 75 days: stored in glass vial approximately 75 days at ambient conditions
Method: The lower the β-isomer content, the higher the chemical purity of the salt. The β-isomer content is measured after synthesis of the salt and compared with the measured β-isomer content after storage for a designated period of time.
Another measure of chemical purity is defined by the content of other related impurities, by-products or degradation products of the salt, which represents the […] of the compound. The lower the content of total impurities as measured by HPLC, generally, by HPLC-UV, the higher the chemical purity of the salt. The total impurity content is measured after synthesis of the salt and compared with the measured total impurity content after storage for a designated period of time.
In order to determine the stability of Crystalline Mono Hydrochloride Salt, the β-isomer content of the salt was determined by HPLC-UV analysis and compared to the β-isomer content calculated after the salt was stored in an amber glass vial for approximately 75 days at ambient conditions.
The β-isomer content of Comparative Example 2 was also determined by HPLC-UV analysis at 0 days and compared to the β-isomer content calculated after the compound was stored in a clear glass vial for approximately 75 days at ambient conditions.
HPLC-UV and XRPD analysis were conducted on samples of Crystalline Mono Hydrochloride Salt, Crystalline Mesylate Salt and Crystalline Sulfate Salt at 0 days and after storage for 7 days at 40° C. and 75% RH. FIGS. 1, 4 and 7 show the XRPD analysis of the Crystalline Mono Hydrochloride Salt, Crystalline Mesylate Salt and Crystalline Sulfate Salt at 0 days and after storage at 40° C. and 75% RH with the graphs overlaid for comparison.
The results of HPLC-UV analysis for the same samples of Crystalline Mesylate Salt and Crystalline Sulfate Salt are shown in Table 4.

[2] = Thermo-gravimetric analysis (TGA); type: physicochemical
Method: TGA is used to determine changes in weight in relation to change in temperature, which may reveal degradation of the compound and the presence of solvates or hydrates. TGA analysis as disclosed herein was collected on a TA Instruments Q500 TGA equipped with a 16 position auto-sampler. The instrument was temperature calibrated using certified Alumel and Nickel. […] A nitrogen purge at 60 ml.min^−1 was maintained over the sample. The instrument control and data analysis software used was Advantage for Q Series v2.8.0.392 and Thermal Advantage v4.8.3 and the data was analyzed using Universal Analysis v4.4A. […] The observed apparent weight loss is due to instability of the machine. Table 5 below compares the DSC and TGA analysis of the crystalline salts of the present invention with the crystalline free base and Comparative Example 1.

[3] = XRPD analysis of crystal form after storage; type: physicochemical; settings: 7 days at 40° C. and 75% RH vs 0 days
Method: XRPD analysis as disclosed herein was collected on a Bruker AXS C2 GADDS diffractometer using Cu Kα radiation (40 kV, 40 mA), automated XYZ stage, laser video microscope for auto-sample positioning and a HiStar 2-dimensional area detector. X-ray optics consisted of a single Gbbel multilayer mirror coupled with a pinhole collimator of 0.3 mm. The software used for data collection was GADDS for WNT 4.1.16 and the data was analyzed and presented using Diffrac Plus EVA v 9.0.0.2 or v 13.0.0.2. Samples were analyzed under ambient conditions as flat plate specimens using powder as received. Approximately 1-2 mg of the sample was lightly pressed on a glass slide to obtain a flat surface. Samples analyzed under non-ambient conditions were mounted on a silicon wafer with a heat conducting compound. The sample was then heated to the appropriate temperature at approximately 20° C.min^−1 and subsequently held isothermally for approximately 1 minute before data collection was initiated.
HPLC-UV and XRPD analysis were conducted on samples of Crystalline Mono Hydrochloride Salt, Crystalline Mesylate Salt and Crystalline Sulfate Salt at 0 days and after storage for 7 days at 40° C. and 75% RH. FIGS. 1, 4 and 7 show the XRPD analysis of the Crystalline Mono Hydrochloride Salt, Crystalline Mesylate Salt and Crystalline Sulfate Salt at 0 days and after storage at 40° C. and 75% RH with the graphs overlaid for comparison. […] The changes shown in the figure are in intensity and resolution rather than in peak position, which, if present, would indicate change in crystal form. Accordingly, Crystalline Mono Hydrochloride Salt and Crystalline Mesylate Salt are physically stable, as shown by FIGS. 1 and 4.

[4] = system: Streptococcus spp. [Group C]; experiment: In vitro MIC testing, antibacterial spectrum of activity; type: cell-based; settings: Streptococcus spp. [Group C] (30 isolates)
S. pyogenes = experiment: as above; type: cell-based; settings: S. pyogenes (32 isolates)
S. agalactiae = experiment: as above; type: cell-based
S. pneumoniae = experiment: as above; type: cell-based, Streptococcus pneumoniae; settings: S. pneumoniae [PSSP] (32 isolates)
[5] = Advantages and disadvantages of solid forms (hygroscopicity, milling/pressing, storage); type: physicochemical; settings: for Hygroscopicity: relative humidity (RH)
Excerpt: One measure of the stability of the physical form of the salt is hygroscopicity, which is the propensity of a substance to absorb or adsorb water molecules from the surrounding environment. Whenever moisture can promote degradation, the salt is stable if it is non-hygroscopic or mildly hygroscopic above 70% relative humidity (RH). In preferred embodiments, the salt is non-hygroscopic or mildly hygroscopic above 80% RH, and in more preferred embodiments, the salt is non-hygroscopic or mildly hygroscopic to 90% RH. “Non-hygroscopic or mildly hygroscopic” as used herein refers to a compound at about 40° C. and at an RH of about 75%, existing over about 80% w/w in solid crystalline form, preferably over about 90% w/w in solid crystalline form, that absorbs less than 10% w/w water, and preferably, less than 5% w/w water in 8 hours or less. Hygroscopicity (hygroscopic degree) is calculated based on increase in weight in a compound at comparative points of measurement. Another measure of physical stability is the crystal form of the salt, which may be measured by XPRD. The stability of Crystalline Mono Hydrochloride Salt was compared to the amorphous mono hydrochloride salt of Comparative Example 2.

[6] = Differential scanning calorimetry (DSC); type: physicochemical
Method: DSC analysis as disclosed herein was collected on a TA Instruments Q2000 equipped with a 50 position auto-sampler. The instrument was calibrated for energy and temperature using certified indium. The calibration for thermal capacity was carried out using sapphire. […] A nitrogen purge at 50 ml.min^−1 was maintained over the sample. The instrument control software used was Advantage for Q Series v2.8.0.392 and Thermal Advantage v4.8.3 and the data was analyzed using Universal Analysis v4.4A. […] The observed apparent weight loss is due to instability of the machine. Table 5 below compares the DSC and TGA analysis of the crystalline salts of the present invention with the crystalline free base and Comparative Example 1.

[7] = from about 30° C. to about 200° C.
[8] = from about 200° C. to about 250° C.

MIC50 (E. coli; Escherichia coli, read-out: MIC50): 32 µg/mL (≈ 80.7 µM)
Compound: CC(=O)OCC1=C(C(=O)O)N2C(=O)[C@@H](NC(=O)Cc3cccs3)[C@H]2SC1 [Cephalothin]

Compound: CON(C)Cc1ccc(O)c2c1C[C@H]1C[C@H]3[C@H](N(C)C)C(O)=C(C(N)=O)C(=O)[C@@]3(O)C(O)=C1C2=O [Crystalline Mesylate Salt, (4S,4aS,5aR,12aS)-4-dimethylamino-3,10,12,12a-tetrahydroxy-7-[(methoxy(methyl)amino)-methyl]-1,11-dioxo-1,4,4a,5,5a,6,11,12a-octahydro-naphthacene-2-carboxylic acid amide]
Chemical Purity at 0 days ([1]; HPLC-UV): 92% | β-isomer content at 0 days ([1]; HPLC-UV): 3% | Chemical Purity at 7 days, 40° C. and 75% RH ([1]; HPLC-UV): 98% | β-isomer content at 7 days, 40° C. and 75% RH ([1]; HPLC-UV): 2% | TGA weight loss [2, 7]: 3% weight loss from about 30 °C to | TGA weight loss [2, 8]: 7% weight loss from about 200 °C | crystal form by XRPD after storage [3]: no change in crystal form

Compound: Penicillin
MIC50 [4]: ≤0.015 µg/mL | MIC90 [4]: ≤0.015 µg/mL | MIC Range [4]: ≤0.015 to 0.03 µg/mL | MIC50 (S. pyogenes): ≤0.015 µg/mL | MIC90 (S. pyogenes): ≤0.015 µg/mL | MIC Range (S. pyogenes): ≤0.015 to 0.25 µg/mL | MIC Range (S. agalactiae; S. agalactiae (31 isolates)): ≤0.015 to 2 µg/mL | MIC50 (S. pneumoniae): ≤0.015 µg/mL | MIC Range (S. pneumoniae): ≤0.015 to 0.12 µg/mL

Compound: CN(C)[C@@H]1C(O)=C(C(N)=O)C(=O)[C@@]2(O)C(O)=C3C(=O)c4c(O)cccc4[C@@](C)(O)[C@H]3C[C@@H]12 [Tetracycline, tetracycline]
MIC Range (E. coli; E. coli [tetS] (7 isolates)): 1 to 4 µg/mL | MIC Range (S. agalactiae; S. agalactiae [tetR] (7 isolates)): 16 to 64 µg/mL | MIC Range (S. agalactiae; S. agalactiae [tetS] (3 isolates)): 0.25-0.25 μg/mL

Compound: CON(C)Cc1ccc(O)c2c1C[C@H]1C[C@H]3[C@H](N(C)C)C(O)=C(C(N)=O)C(=O)[C@@]3(O)C(O)=C1C2=O [Comparative Example 2, (4S,4aS,5aR,12aS)-4-dimethylamino-3,10,12,12a-tetrahydroxy-7-[(methoxy(methyl)amino)-methyl]-1,11-dioxo-1,4,4a,5,5a,6,11,12a-octahydro-naphthacene-2-carboxylic acid amide]
Chemical Purity at 0 days ([1]; HPLC-UV): 94.3% | β-isomer content at 0 days ([1]; HPLC-UV): 4.4% | Chemical Purity at 75 days ([1]; HPLC-UV): 90.4% | β-isomer content at 75 days ([1]; HPLC-UV): 7.8% | increase of β-isomer content after storage ([1]; storage for 75 days at ambient conditions vs 0 days): over 80% | glass transition [5]: High glass transition (166° C.) | β-isomer content upon storage at 63% RH ([5]; 63% RH): Increase in β-isomer content upon | Change in form (amorphous to crystalline) ([5]; above 75% RH): Change in form (from amorphous | β-isomer content upon storage under ambient conditions [5]: Increase in β-isomer content upon | rate of β-isomer formation upon exposure to solvent ([5]; compared to Crystalline Mono Hydrochloride Salt): Faster rate of β-isomer formation | form or β-isomer content upon milling or pressing [5]: Increase in β-isomer content upon | Hygroscopicity [5]: Hygroscopic above 70% RH | crystallization upon storage and heat/cool cycle ([5]; storage and heat/cool cycle): Stable to crystallization upon

Compound: CON(C)Cc1ccc(O)c2c1C[C@H]1C[C@H]3[C@H](N(C)C)C(O)=C(C(N)=O)C(=O)[C@@]3(O)C(O)=C1C2=O [Crystalline Mono Hydrochloride Salt, (4S,4aS,5aR,12aS)-4-dimethylamino-3,10,12,12a-tetrahydroxy-7-[(methoxy(methyl)amino)-methyl]-1,11-dioxo-1,4,4a,5,5a,6,11,12a-octahydro-naphthacene-2-carboxylic acid amide]
total impurity content at 0 days ([1]; HPLC-UV, 0 days): 4 % peak area | Chemical Purity at 0 days ([1]; HPLC-UV): 93.8% and 95.8% | β-isomer content at 0 days ([1]; HPLC-UV): 3.8% | Chemical Purity at 75 days ([1]; HPLC-UV): 94.8% | β-isomer content at 75 days ([1]; HPLC-UV): 3.8% | total impurity content after storage ([1]; about 6 months at about 40° C. and about 75% RH): 6 % peak area | TGA weight loss [2, 7]: 3% weight loss from about 30 °C to | TGA weight loss [2, 8]: 14% weight loss from about 200 °C | β-isomer content upon storage under ambient conditions [5]: No increase in β-isomer content | form or β-isomer content upon milling or pressing [5]: No change in form or β-isomer | crystallinity upon pressing and milling ([5]; pressing and milling): Some loss of crystallinity upon | Hygroscopicity [5]: Non-hygroscopic to 90% RH | crystal form by XRPD after storage [3]: no change in crystal form

Compound: CON(C)Cc1ccc(O)c2c1C[C@H]1C[C@H]3[C@H](N(C)C)C(O)=C(C(N)=O)C(=O)[C@@]3(O)C(O)=C1C2=O [Crystalline Sulfate Salt, (4S,4aS,5aR,12aS)-4-dimethylamino-3,10,12,12a-tetrahydroxy-7-[(methoxy(methyl)amino)-methyl]-1,11-dioxo-1,4,4a,5,5a,6,11,12a-octahydro-naphthacene-2-carboxylic acid amide]
Chemical Purity at 0 days ([1]; HPLC-UV): 88% | β-isomer content at 0 days ([1]; HPLC-UV): 9% | Chemical Purity at 7 days, 40° C. and 75% RH ([1]; HPLC-UV): 91% | β-isomer content at 7 days, 40° C. and 75% RH ([1]; HPLC-UV): 9% | TGA weight loss [2, 7]: 3% weight loss from about 30 °C to | TGA weight loss [2, 8]: 14% weight loss from about 200 °C | crystal form by XRPD after storage [3]: increased crystalline content

Compound: CON(C)Cc1ccc(O)c2c1C[C@H]1C[C@H]3[C@H](N(C)C)C(O)=C(C(N)=O)C(=O)[C@@]3(O)C(O)=C1C2=O [Crystalline Free Base, (4S,4aS,5aR,12aS)-4-dimethylamino-3,10,12,12a-tetrahydroxy-7-[(methoxy(methyl)amino)-methyl]-1,11-dioxo-1,4,4a,5,5a,6,11,12a-octahydro-naphthacene-2-carboxylic acid amide]
TGA weight loss ([2]; from about 30° C. to decomposition at less than 220° C.): 15% weight loss from about 30 °C | DSC endothermic peak [6]: 175 °C (ΔH 72 J · g^−1)
